Results published in patent US7595327B2, “Beta-sulfonamide hydroxamic acid inhibitors of tace/matrix metalloproteinase” (priority 2005, dated 2009).
Read-outs that look alike come from different tables or passages of the source.

Key:
[1] = biological target: T1, TACE (catalytic domain of the recombinant TACE protein) (Homo sapiens, UniProt P78536); assay: TACE FRET assay using TACE Cat; assay type: biochemical; conditions: pro-TNF-α substrate peptide
T1 construct: The catalytic domain of the recombinant TACE protein was expressed and purified; made in house
Protocol: The procedure is essentially as described in Jin, G. et al., Analytical Biochemistry (2002) 302, 269-275, incorporated by reference herein in its entirety. […] K is the IC50. Generally, n and B are floated, noting that n (hill slope) should be close to 1 and B (background offset) to 0.
Pro-TNF-α substrate peptide Abz-[…]-Dpa (AnaSpec, San Jose, Calif., WARC-1) was prepared as a 2 mM stock solution in the TACE assay buffer (50 mM Tris-HCI, pH 7.4, 25 mM NaCl, 4% Glycerol, 0.005% Brij 35). The catalytic domain of the recombinant TACE protein was expressed and purified. The TACE protein (1 ug/ml) was pretreated with the inhibitors at various concentrations for 10 min at room temperature. The reaction was initiated by the addition of the substrate peptide. The increase in fluorescence was monitored at an Excitation of 320 nm and an Emission of 420 nm over a period of 10 min. The initial rate (slope) of the reaction was determined using a fluorescence plate reader (Molecular Devices, Spectra Max Gemini XS).

[2] = biological target: T2, recombinant human MMP-2 (Homo sapiens, UniProt P08253); assay: In-vitro fluorescence assay of MMP-2 activity; assay type: biochemical
T2 sequence (P08253 110-660): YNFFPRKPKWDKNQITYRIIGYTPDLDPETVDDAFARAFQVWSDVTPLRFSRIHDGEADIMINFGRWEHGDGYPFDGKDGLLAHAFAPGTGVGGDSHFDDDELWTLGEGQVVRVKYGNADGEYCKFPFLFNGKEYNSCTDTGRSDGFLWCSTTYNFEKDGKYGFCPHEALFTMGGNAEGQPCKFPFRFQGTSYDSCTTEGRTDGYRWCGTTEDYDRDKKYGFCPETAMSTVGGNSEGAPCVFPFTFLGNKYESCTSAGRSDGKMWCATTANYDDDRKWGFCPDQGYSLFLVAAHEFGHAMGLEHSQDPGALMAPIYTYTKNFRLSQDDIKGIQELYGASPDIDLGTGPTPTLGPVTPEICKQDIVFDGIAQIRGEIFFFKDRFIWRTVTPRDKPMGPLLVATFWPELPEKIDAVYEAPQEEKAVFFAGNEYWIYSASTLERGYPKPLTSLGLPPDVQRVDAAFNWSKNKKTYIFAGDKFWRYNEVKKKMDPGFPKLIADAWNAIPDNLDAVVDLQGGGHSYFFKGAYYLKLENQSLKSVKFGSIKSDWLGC

[3] = biological target: MMP-13 (Homo sapiens, UniProt P45452); assay: In-vitro fluorescence assay of MMP-13 activity; assay type: biochemical
Protocol: See Knight, C. […] […].
The method was essentially the same as for the determination of MMP-1 activity, described above, except that the final concentration of purified MMP in the assay was 0.5 nM, prepared by diluting with the assay buffer.

[4] = system: TNF-α secretion in Raw 264.7 cells; assay: Cell-based assay for inhibition of TNF-α secretion in Raw cells; conditions: Mus musculus, RAW264.7, LPS 100 ng/ml, 4 hr
Protocol: The basic measurement of the assay is the percentage of inhibition of TNF-α secretion and the IC50 determination by a fitting with the model-39 of LSW data analysis tool. […] Cells are split twice a week by scraping and 1 to 10 or 20 dilutions. For testing compounds, cells are cultured to confluence and are seeded the day before the experiment in 24 well culture dishes at 0.5 to 1 million/ml well. On the next morning, the medium from the overnight culture is replaced with the fresh growth medium. The compounds are added at various concentration at the 0.2% of final DMSO concentrations (10 μl of a 20% DMSO solution containing testing compounds is added to each well). The cells are pre-incubated with compounds for 1 hr. LPS (Sigma, L2262) is added to cells at a final concentration of 100 ng/ml (10 μl of a […] LPS solution freshly diluted from a 1 mg/ml LPS stock solution in PBS is added to each well) and cells are further incubated for 4 hr at 37° C. 1 ml of the supernatant was collected, cells are spun down and the supernatants are frozen at −80° C. until use. The TNF-α and other proinflammatory cytokines were detected by an ELISA assay according to the manufacturer's instructions (Biosource International, Inc., Camarillo, Calif. (For IL-1b measurement in Raw cells, one round of freeze and thaw of the cells was required).

[5] = system: LPS-induced TNF-α secretion in human whole blood; assay: Human whole blood assay for LPS-induced TNF-α secretion; assay type: cell-based; conditions: Homo sapiens, LPS 100 ng/ml, read-out: TNF Secretion HWB IC50
Protocol: procedure is essentially as described in Newton, R. C., et al., (2001) Ann Rheum […]32, incorporated by reference herein in its entirety. The basic measurement of the assay is the percentage of inhibition of TNF-α secretion and the IC50 determination by a […] model-39 of LSW data analysis tool. 350 μl of fresh human blood drawn from healthy volunteers were pre-incubated with compounds for one hour at the various concentrations at 37° C. with turning generally, the final DMSO concentrations should be kept below 0.2%. At the end of cubation, LPS (Sigma, L2262) was added to the blood at 100 ng/ml and the samples were further incubated for 4 hours or overnight at 37° C. with constant rotation. At the end of the incubation period, 650 μl of serum-free medium was added to the blood samples and the samples were centrifuged at 1500 rpm for 15 minutes. 500 μl of supernate was collected and frozen at -80° C. The TNF-α and other proinflammatory cytokines were detected by ELISA assay according to the manufacturer's instruction (Biosource International, Inc., Camarillo, Calif.).

T1 sequence (P78536 223-474 limits assumed): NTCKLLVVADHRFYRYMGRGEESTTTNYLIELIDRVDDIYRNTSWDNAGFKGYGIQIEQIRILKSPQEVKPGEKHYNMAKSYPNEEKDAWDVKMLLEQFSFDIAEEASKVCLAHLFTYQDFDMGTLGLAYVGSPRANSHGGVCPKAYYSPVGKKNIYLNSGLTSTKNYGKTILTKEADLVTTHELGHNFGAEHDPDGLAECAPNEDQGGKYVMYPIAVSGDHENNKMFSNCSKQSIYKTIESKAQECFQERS

Row | SMILES | IC50 ([1]; FRET, read-out: TACE IC50) [µM] | IC50 [2] [µM] | IC50 [3] [µM] | IC50 [4] [µM] | IC50 [5] [µM] | IC50 ([1]; TACE IC50, FRET) [µM]
1 | Cc1cc(COc2ccc(S(=O)(=O)N[C@@H]3CCN(C(=O)OC(C)(C)C)CC3C(=O)NO)cc2)c2ccccc2n1 (mixture of isomers) [Example 28, tert-Butyl (3S,4R)-3-[(hydroxyamino)carbonyl]-4-[({4-[(2-methylquinolin-4-yl)methoxy]phenyl}sulfonyl)amino]piperidine-1-carboxylate] | 0.0005 | > 16.7 | 14.4 | 0.46 | 0.8 | –
2 | Cc1cc(COc2ccc(S(=O)(=O)N(C)[C@H]3[C@@H](C(=O)NO)[C@H]4C=C[C@@H]3C4)cc2)c2ccccc2n1 (relative stereo) [Example 8, endo-N-Hydroxy-3-[methyl({4-[(2-methylquinolin-4-yl)methoxy]phenyl}sulfonyl)amino]bicyclo[2.2.1]hept-5-ene-2-carboxamide] | 0.0015 | > 16.7 | > 16.7 | – | > 50 | –
3 | Cc1cc(COc2ccc(S(=O)(=O)N[C@@H]3CC=CC[C@@H]3C(=O)NO)cc2)c2ccccc2n1 (relative stereo) [Example 10, cis-N-hydroxy-6-[({4-[(2-methylquinolin-4-yl)methoxy]phenyl}sulfonyl)amino]cyclohex-3-ene-1-carboxamide] | 0.0011 | > 16.7 | > 16.7 | – | 4.2 | –
4 | Cc1cc(COc2ccc(S(=O)(=O)N(C)[C@H]3CCCC[C@@H]3C(=O)NO)cc2)c2ccccc2n1 (relative stereo) [Example 61, trans-N-hydroxy-2-[methyl({4-[(2-methylquinolin-4-yl)methoxy]phenyl}sulfonyl)amino]cyclohexanecarboxamide] | – | > 16.7 | > 16.7 | 0.911 | 43 | –
5 | CN(C1C2CCC(C2)C1C(=O)NO)S(=O)(=O)c1ccc(OCc2ccc3ccccc3c2)cc1 (stereo in doubt) [Example 39, (1R,2S,3R,4S)-N-hydroxy-3-(methyl{[4-(2-naphthylmethoxy)phenyl]sulfonyl}amino)bicyclo[2.2.1]heptane-2-carboxamide] | 0.172 | – | – | – | – | –
6 | CN(C1C2CCC(C2)C1C(=O)NO)S(=O)(=O)c1ccc(OCc2ccc3nonc3c2)cc1 (stereo in doubt) [Example 40, (1R,2S,3R,4S)-3-[{[4-(2,1,3-benzoxadiazol-5-ylmethoxy)phenyl]sulfonyl}(methyl)amino]-N-hydroxybicyclo[2.2.1]heptane-2-carboxamide] | 0.056 | – | – | – | – | –
7 | Cc1cc(COc2ccc(S(=O)(=O)NC3C(C(=O)NO)C4CCC3N4C(=O)OC(C)(C)C)cc2)c2ccccc2n1 (centres unmarked) [Example 37, tert-Butyl 2-[(hydroxyamino)carbonyl]-3-[({4-[(2-methylquinolin-4-yl)methoxy]phenyl}sulfonyl)amino]-7-azabicyclo[2.2.1]heptane-7-carboxylate] | – | > 16.7 | > 16.7 | – | 59 | 0.01
8 | Cc1cc(COc2ccc(S(=O)(=O)NC3C4CCC(N4)C3C(=O)NO)cc2)c2ccccc2n1 (centres unmarked) [Example 38, 3-[4-(2-Methyl-quinolin-4-ylmethoxy)-benzenesulfonylamino]-7-aza-bicyclo[2.2.1]heptane-2-carboxylic acid hydroxyamide] | – | 8.68 | > 16.7 | – | 26 | 0.051
9 | Cc1cc(COc2ccc(S(=O)(=O)N[C@@H]3CCC[C@]3(CO)C(=O)NO)cc2)c2ccccc2n1 [Example 58] | – | – | – | 0.44 | 14 | –

More lines, main results first:

Row | IC50 ([1]; FRET, read-out: TACE IC50) [µM] | IC50 [2] [µM] | IC50 [3] [µM] | IC50 [4] [µM] | IC50 [5] [µM] | SMILES | IC50 ([1]; TACE IC50, FRET) [µM]
10 | 0.0022 | > 16.7 | > 16.7 | – | 9.9 | Cc1cc(COc2ccc(S(=O)(=O)N[C@H]3[C@@H](C(=O)NO)[C@@H]4CC[C@H]3O4)cc2)c2ccccc2n1 (relative stereo) [Example 2, exo-N-Hydroxy-3-[({4-[(2-methylquinolin-4-yl)methoxy]phenyl}sulfonyl)amino]-7-oxabicyclo[2.2.1]heptane-2-carboxamide] | –
11 | 0.001 | > 16.7 | > 16.7 | – | 47 | Cc1cc(COc2ccc(S(=O)(=O)N[C@@H]3[C@@H]4CC[C@@H](C4)[C@@H]3C(=O)NO)cc2)c2ccccc2n1 (relative stereo) [Example 6, endo-N-Hydroxy-3-[({4-[(2-methylquinolin-4-yl)methoxy]phenyl}sulfonyl)amino]bicyclo[2.2.1]heptane-2-carboxamide] | –
12 | 0.0012 | > 16.7 | > 16.7 | – | 34 | Cc1cc(COc2ccc(S(=O)(=O)N[C@H]3[C@@H](C(=O)NO)[C@H]4C=C[C@@H]3C4)cc2)c2ccccc2n1 (relative stereo) [Example 7, endo-N-Hydroxy-3-[({4-[(2-methylquinolin-4-yl)methoxy]phenyl}sulfonyl)amino]bicyclo[2.2.1]hept-5-ene-2-carboxamide] | –
13 | 0.0001 | > 16.7 | > 16.7 | – | 9.3 | Cc1cc(COc2ccc(S(=O)(=O)N[C@H]3[C@@H](C(=O)NO)[C@@H]4C=C[C@H]3C4)cc2)c2ccccc2n1 (relative stereo) [Example 9, exo-N-Hydroxy-3-[({4-[(2-methylquinolin-4-yl)methoxy]phenyl}sulfonyl)amino]bicyclo[2.2.1] hept-5-ene-2-carboxamide] | –
14 | – | > 16.7 | > 16.7 | 0.08 | 2.2 | Cc1cc(COc2ccc(S(=O)(=O)N[C@@H]3CCCC[C@@H]3C(=O)NO)cc2)c2ccccc2n1 (relative stereo) [Example 12, cis-N-hydroxy-2-[({4-[(2-methylquinolin-4-yl)methoxy]phenyl}sulfonyl)amino]cyclohexanecarboxamide] | –
15 | – | > 16.7 | > 16.7 | 0.09 | 0.27 | Cc1cc(COc2ccc(S(=O)(=O)N[C@@H]3CNC[C@@H]3C(=O)NO)cc2)c2ccccc2n1 (relative stereo) [Example 22, cis-N-Hydroxy4-[({4-[(2-methylquinolin-4-yl)methoxy]phenyl}sulfonyl)amino]pyrrolidine-3-carboxamide] | –
